From patent US10844051B2, “Substituted oxazoles for the treatment of cancer” (THE ROYAL INSTITUTION FOR THE ADCANCEMENT OF …, priority 2015, dated 2020)
Entries after “also recorded” stand apart in the source; their conditions may differ.

How the values were obtained:
[1] = test system: EZH2, c-Myc and ERG expression in VCaP cells; assay: Expression of EZH2, c-Myc and ERG in VCaP cells; format: cell-based; conditions: 10 μM, 72 hours
Procedure: VCaP cells were exposed to DMSO vehicle control, 648, 698 and 891 at 10 μM for 72 hours in DMEM medium plus 10% FBS or phenol red-free DMEM medium plus 10% charcoal-stripped FBS (CS-FBS).

C4-2B cells = assay: Matrigel invasion assay, C4-2B; format: cell-based; conditions: 48 hours
Procedure: (§1) Invasion assay was performed using (8.0 μm pore size) BD Matrigel Invasion chambers in 24-well plate (Catalog: 354480, BD Biosc.). 750 μL medium (with 20% FBS) was added into lower chamber of each well (DMEM for VCaP, RPMI 1640 for C4-2B and DU145). Next, 5×10^5 VCaP or 5×10^5 C4-2B or 1×10^4DU145 cells in 500 μL medium (with 0.5% FBS) were seeded into the upper chamber of each well. DMSO vehicle or compounds in DMSO solution were added into upper chamber to reach the designated doses. After 48 hours incubation, the invasive cells attached to the lower surface of the membrane insert were fixed in 10% formalin at room temperature for 30 minutes and stained with 0.05% crystal violet. The number of invasive cells was then counted under a microscope. Invasion experiments were performed in duplicate. ***p<0.0001 when compared with vehicle control.

ERG [2] = molecular target: T1, ERG (Homo sapiens, UniProt P11308); assay: ERG-dependent reporter assay in HEK293 cells; format: cell-based; set-up: expressed in transfected cells; host or cells: HEK293; conditions: PUx3-Luc reporter, 48 hours, designated doses
T1 sequence (P11308 1-486 isoform P11308-3): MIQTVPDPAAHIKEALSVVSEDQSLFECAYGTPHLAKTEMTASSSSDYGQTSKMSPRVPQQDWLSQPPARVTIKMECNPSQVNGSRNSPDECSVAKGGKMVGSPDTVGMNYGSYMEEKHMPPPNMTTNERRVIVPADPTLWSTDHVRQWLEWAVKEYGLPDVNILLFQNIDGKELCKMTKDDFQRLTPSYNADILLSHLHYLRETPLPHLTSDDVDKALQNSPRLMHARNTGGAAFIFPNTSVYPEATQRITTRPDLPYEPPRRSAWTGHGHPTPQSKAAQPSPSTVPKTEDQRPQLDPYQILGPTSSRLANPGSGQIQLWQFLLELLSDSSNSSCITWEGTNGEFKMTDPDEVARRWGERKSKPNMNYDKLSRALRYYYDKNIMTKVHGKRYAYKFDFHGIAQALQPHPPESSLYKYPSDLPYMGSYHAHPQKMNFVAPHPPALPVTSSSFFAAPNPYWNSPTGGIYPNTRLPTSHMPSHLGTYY
Procedure: (§2) HEK293 cells were transiently transfected with empty vector (for the NT) or ERG-expressing plasmid as well as pRL-TK (internal control) and PUx3-Luc reporter. Cells were then exposed to DMSO vehicle or compounds at designated doses for 48 hours. Experiments were done in triplicate.

ERG [3] = molecular target: T1, ERG; assay: Surface Plasmon Resonance (SPR) analysis on amine-coupled ERG; format: binding
Procedure: Steady-state kinetics of compound 648, YK-4-279 (positive control) and bicalutamide (Bic) (negative control) over amine-coupled ERG surfaces with 50 μM injection (25 μL/min×120 sec association+120 sec dissociation). High-density ERG (6000 RU) and reference surface (no ERG) were amine-coupled to CM5 sensors using BIACORE 3000 instrumentation. YK-4-279 is a known ERG inhibitor. Bic is an antagonist of the androgen receptor.
FIG. 1.5b) Preliminary SPR data to characterize binding affinity of compound 648. Rapid on/off kinetics for compound 648 when titrated over amine-coupled ERG surfaces at 0, 10, 20, 30, 40, and 50 μM (25 μL/min×120 sec association+120 sec dissociation).

ETV1 = molecular target: T2, ETV1 (Homo sapiens, UniProt P50549); assay: ETV1-dependent reporter assay in HEK293 cells; format: cell-based; conditions: 48 hours
T2 construct: expressed in transfected cells; host or cells: HEK293
T2 sequence (P50549 1-477): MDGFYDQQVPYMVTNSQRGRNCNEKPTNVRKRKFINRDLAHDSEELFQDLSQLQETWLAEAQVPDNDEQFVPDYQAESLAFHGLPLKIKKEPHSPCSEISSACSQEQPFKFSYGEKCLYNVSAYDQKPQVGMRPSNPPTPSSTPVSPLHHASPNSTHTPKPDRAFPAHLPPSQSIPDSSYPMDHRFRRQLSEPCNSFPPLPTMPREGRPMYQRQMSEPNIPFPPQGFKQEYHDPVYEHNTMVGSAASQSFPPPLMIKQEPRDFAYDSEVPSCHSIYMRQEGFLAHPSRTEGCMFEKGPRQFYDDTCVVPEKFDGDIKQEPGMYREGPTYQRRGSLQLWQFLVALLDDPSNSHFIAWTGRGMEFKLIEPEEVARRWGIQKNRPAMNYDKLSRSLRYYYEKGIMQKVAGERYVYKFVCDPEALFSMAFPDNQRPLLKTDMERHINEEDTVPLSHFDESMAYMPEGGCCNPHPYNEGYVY
Procedure: as §2
Experiments were done as described above in FIG. 1.1a) except that ERG plasmid was replaced by ETV1 plasmid.

VCaP cells = assay: Matrigel invasion assay, VCaP; format: cell-based; conditions: 48 hours
Procedure: as §1

ESE-1 = molecular target: T3, ESE-1 (Homo sapiens, UniProt P78545); assay: ESE-1 dependent reporter assay in HEK293 cells; format: cell-based; conditions: 48 hours
T3 construct: expressed in transfected cells; host or cells: HEK293
T3 sequence (P78545 1-371): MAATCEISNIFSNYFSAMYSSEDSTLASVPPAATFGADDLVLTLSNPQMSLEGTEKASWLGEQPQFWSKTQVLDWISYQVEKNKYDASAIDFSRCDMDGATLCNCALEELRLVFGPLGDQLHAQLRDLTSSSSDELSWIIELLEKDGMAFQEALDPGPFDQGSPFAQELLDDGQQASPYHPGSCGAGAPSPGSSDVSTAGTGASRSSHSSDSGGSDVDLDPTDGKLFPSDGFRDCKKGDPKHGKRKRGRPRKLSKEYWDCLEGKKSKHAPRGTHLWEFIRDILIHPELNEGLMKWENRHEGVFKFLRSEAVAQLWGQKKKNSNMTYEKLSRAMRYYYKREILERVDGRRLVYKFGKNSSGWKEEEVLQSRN
Procedure: as §2
Experiments were done as described above in FIG. 1.1a) except that ERG plasmid was replaced by ESE-1 plasmid.

ETS-2 = molecular target: T4, ETS-2 (Homo sapiens, UniProt P15036); assay: ETS-2 dependent reporter assay in HEK293 cells; format: cell-based; conditions: 48 hours
T4 construct: expressed in transfected cells; host or cells: HEK293
Procedure: as §2
Experiments were done as described above in FIG. 1.1a) except that ERG plasmid was replaced by ETS-2 plasmid.

[4] = test system: LNCaP-pcDNA and LNCaP-GATA2 cells; assay: MTT assay in LNCaP-pcDNA and LNCaP-GATA2 cells; format: cell-based; conditions: 72 hours
Procedure: Cells were exposed to DMSO vehicle or compounds for 72 hours. Vial cells were evaluated by MTT assays. Experiments were done in triplicate.

T4 sequence (P15036 whole entry, species assumed): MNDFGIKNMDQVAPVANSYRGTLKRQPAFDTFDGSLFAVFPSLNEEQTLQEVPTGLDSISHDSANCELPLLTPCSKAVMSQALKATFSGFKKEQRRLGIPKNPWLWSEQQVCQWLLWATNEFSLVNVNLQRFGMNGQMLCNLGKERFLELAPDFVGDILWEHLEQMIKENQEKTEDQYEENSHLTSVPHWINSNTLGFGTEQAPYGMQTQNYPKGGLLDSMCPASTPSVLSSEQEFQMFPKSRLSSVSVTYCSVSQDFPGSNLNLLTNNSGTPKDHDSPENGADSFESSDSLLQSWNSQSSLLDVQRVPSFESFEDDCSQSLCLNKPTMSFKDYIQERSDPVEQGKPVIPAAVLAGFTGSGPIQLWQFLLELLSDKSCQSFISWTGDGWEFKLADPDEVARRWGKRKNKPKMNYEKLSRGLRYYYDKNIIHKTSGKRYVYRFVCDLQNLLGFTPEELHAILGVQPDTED

| SMILES | inhibition of expression of EZH2, c-Myc and ERG [1] | inhibition of invasion of C4-2B cells (C4-2B cells) | ERG inhibition in ERG-dependent reporter assay (ERG [2]) | direct binding with human ERG protein (SPR) (ERG [3]; 50 μM injection, amine-coupled ERG) | KD for ERG, steady-state affinity model (SPR) (ERG [3]; titrated at 0-50 μM, preliminary data) | ETV1 inhibition in ETV1-dependent reporter assay (ETV1) | inhibition of invasion of VCaP cells (VCaP cells) | ESE-1 inhibition in ESE-1 dependent reporter assay (ESE-1) | ETS-2 inhibition in ETS-2 dependent reporter assay (ETS-2) | cytotoxicity in LNCaP-GATA2 compared with LNCaP-pcDNA cells (MTT) [4] |
| --- | --- | --- | --- | --- | --- | --- | --- | --- | --- | --- |
| Oc1cccc(-c2nc(Cc3c[nH]c4ccccc34)oc2-c2cccc(O)c2)c1 [Compound 648] | inhibit expression of EZH2, c-Myc and ERG | potently inhibits invasion | potent inhibitor of ERG; also recorded: ERG inhibitors | direct binding | low micromolar | ETV1 inhibitors | potently inhibits invasion |  |  |  |
| N#CC(NC(=O)c1ccccc1)SCc1ccccc1 (centres unmarked) [Compound V154] |  |  | ERG inhibitors |  |  |  |  | ESE-1 inhibitors | ETS-2 inhibitor |  |
| CC(O)(CS(=O)(=O)c1ccc(F)cc1)C(=O)Nc1ccc(C#N)c(C(F)(F)F)c1 (centres unmarked) [bicalutamide, reference compound] |  |  |  |  |  |  |  |  |  | less active in LNCaP-GATA2 cells |
